From US20130296425A1, “PROPHYLACTIC OR THERAPEUTIC AGENT FOR A PERIPHERAL NERVE DISORDER INDUCED BY ANTI-CANCER AGENTS” (NAGOYA INDUSTRIAL SCIENCE RESEARCH INSTITUTE, priority 2011, published 2013)

Legend:
[1] = test system: paclitaxel-induced peripheral nerve disorder rats; assay: Repeated intraperitoneal administration, hyperalgesia by paclitaxel (von Frey test); format: in vivo, rat
Method: (§1) With regard to male SD rats of six weeks age used as the experimental animals, their 50% reaction threshold values to the mechanical stimulus (the measuring method will be mentioned later) and body weights were measured and then the following seven groups each comprising eight rats was organized. • Normal control group • Onset control group • Prophylactic administration group with 0.25 mg/kg/day of a test drug • Prophylactic administration group with 0.50 mg/kg/day of a test drug • Therapeutic administration group with 0.25 mg/kg/day of a test drug • Therapeutic administration group with 0.50 mg/kg/day of a test drug • Therapeutic administration group with 30 mg/kg/day of gabapentin (positive control)
Taxol (registered trademark) injection 30 mg (manufactured by Bristol-Myers Squibb) containing 6 mg/mL of paclitaxel was used. To the rats of each of the above groups except the normal control group was intraperitoneally administered paclitaxel diluted to 2 mg/mL with saline in a dose of 2 mg/kg four times every other day whereupon the paclitaxel-induced peripheral nerve disorder rats were prepared. To the normal control group, an equivalent mixture of ethanol and Cremophor EL (registered trademark; manufactured by Sigma; a solvent for Taxisol (registered trademark) injection) diluted with saline to an extent of 3-fold was administered similarly.
To prophylactic administration groups of a test drug, the compound 4 in a dose of 0.25 mg/kg/day or 0.50 mg/kg/day was repeatedly administered intraperitoneally since immediately after initiation of administration of paclitaxel until 13 days thereafter. Meanwhile, to therapeutic administration groups of a test drug and to a therapeutic administration group of gabapentin, the compound 4 in a dose of 0.25 mg/kg/day or 0.50 mg/kg/day or gabapentin in a dose of 30 mg/kg/day, respectively was repeatedly administered intraperitoneally during the period of from 14 days to 42 days after initiation of the administration of paclitaxel.
The seven groups of rats of the above (1) were placed in a transparent acrylic cage with a wire-meshed floor and habituated for about three minutes and the 50% reaction threshold values to the mechanical stimulus of right hind limb were measured after 3, 7, 14, 21, 28, 35 and 42 days from initiation of the administration of paclitaxel. Incidentally, during the period of administration of a test drug, its values were measured after 24 hours from the last administration of a test drug.
The measurement was conducted using von Frey filaments (manufactured by North Coast Medical Inc.) in accordance with the methods of Chaplan, et al. (Journal of Neuroscience Methods, vol. 53, no. 1, pages 55 to 63, 1994) and Dixon, et al. (Annual Review of Pharmacology and Toxicology, vol. 20, pages 441 to 462, 1980). […] The case where the rat escaped at the instance of removing the filament was also called positive. When the positive reaction was noted, stimulus was conducted similarly using a filament of one rank weaker while, when no reaction was noted, stimulus was conducted similarly using a filament of one rank stronger and the point when the reaction changed from negative to positive or from positive to negative was called the first two reactions. […] A 50% reaction threshold value to the mechanical stimulus was measured using the reaction to the six stimuli in total and then (mean value) ± (standard error) for each group was calculated. […]

[2] = test system: oxaliplatin-induced peripheral nerve disorder rats; assay: Repeated intraperitoneal administration, hyperalgesia by oxaliplatin (von Frey test); format: in vivo, rat
Method: as §1, with “to” for “to the”, “stimulus” for “stimulus (the measuring method will be mentioned later)”, “comprising 8” for “comprising eight”, “with 10” for “with 30”, “of pregabalin” for “of gabapentin”
To the rats of each of the above groups except the normal control group was intraperitoneally administered an oxaliplatin solution dissolved in glucose injection to an extent of 4 mg/mL in a dose of 4 mg/kg twice weekly for four weeks being eight times in total whereupon the oxaliplatin-induced peripheral nerve disorder rats were prepared. To the normal control group, glucose injection was administered similarly.
To prophylactic administration groups of a test drug, a test drug (the compound 4) in a dose of 0.25 mg/kg/day or 0.50 mg/kg/day was repeatedly administered intraperitoneally since immediately after initiation of administration of oxaliplatin until 27 days thereafter. Meanwhile, to a therapeutic administration group of a test drug and to a therapeutic administration group of pregabalin, a test drug (the compound 4) in a dose of 0.25 mg/kg/day or 0.50 mg/kg/day was repeatedly administered intraperitoneally during the period of from 14 days to 27 days after initiation of the administration of oxaliplatin and, pregabalin was administered orally in repeated dose of 10 mg/kg/day during the same period.
A von Frey test was conducted in the same manner as in the above 1.[1](4) using the seven groups of rats mentioned in the above (1). 50% reaction threshold values in each group were measured before initiating the administration of oxaliplatin and after 7, 14, 21, 28, 33 and 40 days from the initiation of the administration. Mean value ± standard error for each group was calculated and the test for significant difference was conducted in the same manner as in the above 1.[1](4).

[3] = test system: paclitaxel-induced peripheral nerve disorder rats; assay: Single intraperitoneal administration, hyperalgesia induced by paclitaxel (von Frey test); format: in vivo; details: Rattus norvegicus, ip, single i.p. dose 0.3 mg/kg, higher of the values after 1 hour and 5 hours, read-out: Recovery rate of 50% reaction threshold value (%)
Method: Male SD rats in six weeks age (one group comprised six rats) were used as experimental animals and the paclitaxel-induced peripheral nerve disorder rats were prepared in the same manner as in the above 1.[1](2). The test drug was administered intraperitoneally in a single dose so as to make it 0.3 mg/kg in any of the cases during the period of 18 to 25 days or 20 to 27 days after initiation of administration of paclitaxel.
A von Frey test was conducted in the same manner as in the above 1.[1](4) using the rats mentioned in the above (1) and each 50% reaction threshold value was measured. With regard to the higher 50% reaction threshold value between the 50% reaction threshold values after 1 hour and 5 hours from administration of a test drug, a recovery rate (%) of the 50% reaction threshold value was calculated.
Recovery rate (%) of 50% reaction threshold value={[(50% reaction threshold value after 1 hour or 5 hours from administration of test drug)−(50% reaction threshold value before administration of test drug)]÷[(Normal threshold value)−(50% reaction threshold value before administration of test drug)]}×100

**Q.** CCCCCCC/C=C/C(=O)OCC [Compound 4, Trans-2-decenoic acid ethyl ester] was tested. Which “effect of suppressing the hyperalgesia after completion of the repeated administration” value ([1]; paclitaxel model, repeated i.p. 0.25 or 0.50 mg/kg/day) did it give?
**A.** still continued

**Q.** And the “50% reaction threshold values to the mechanical stimulus vs onset control group” value (“50% reaction threshold values” below) ([1]; prophylactic i.p. 0.5 mg/kg/day until 13 days, from 14 days to 28 days after initiation of paclitaxel, male SD rats)?
**A.** significantly high

**Q.** What about the “50% reaction threshold values” value ([1]; therapeutic i.p. 0.25 mg/kg/day (days 14-42), from 21 days to 35 days after paclitaxel) of the same compound?
**A.** significantly high

**Q.** And the “50% reaction threshold values” value ([1]; therapeutic i.p. 0.5 mg/kg/day (days 14-42), after 28 days from paclitaxel)?
**A.** significantly high

**Q.** And the “effect of suppressing the hyperalgesia after completion of the repeated administration” value ([2]; oxaliplatin model, repeated i.p. 0.25 or 0.50 mg/kg/day)?
**A.** still continued

**Q.** And the “50% reaction threshold values” value ([2]; prophylactic i.p. 0.25 mg/kg/day until 27 days, from 21 days to 28 days after oxaliplatin)?
**A.** significantly high

**Q.** What about the “50% reaction threshold values” value ([2]; prophylactic i.p. 0.5 mg/kg/day until 27 days, from 21 days to 33 days after oxaliplatin) of the same compound?
**A.** significantly high

**Q.** And the “50% reaction threshold values” value ([2]; therapeutic i.p. 0.25 mg/kg/day (days 14-27), after 28 days from oxaliplatin)?
**A.** significantly high

**Q.** What about the “50% reaction threshold values” value ([2]; therapeutic i.p. 0.5 mg/kg/day (days 14-27), from 21 days to 33 days after oxaliplatin) of the same compound?
**A.** significantly high

**Q.** What about the inhibition in vivo at 0.3 mg/kg [3] of the same compound?
**A.** 48.5%
